ChEMBL document CHEMBL1201862, “PubChem BioAssay data set” (2004)
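Following 48 hours of exposure in 96-well plates, responses at five concentrations were used to interpolate endpoints linearly. Here, GI50 denotes the concentration required for 50% inhibition of growth.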 Activity calls are given as the source filed them. Rule as the data show it: active = GI50 up to about 1.1 µM and inactive = higher.

What was measured:
Assay in all cases: growth of human tumour cells (NCI), 48 h
786-0 = system: 786-0
HCC 2998 = system: HCC 2998
HCT-15 = system: HCT-15
HOP-92 = system: HOP-92
K562 = system: K562
M19-MEL = system: M19-MEL
NCI-H226 = system: NCI-H226
NCI-H460 = system: NCI-H460
OVCAR-5 = system: OVCAR-5
RPMI-8226 = system: RPMI-8226
SF-268 = system: SF-268
SF-539 = system: SF-539
SK-OV-3 = system: SK-OV-3
SNB-19 = system: SNB-19
SNB-75 = system: SNB-75
UACC-62 = system: UACC-62
Hs-578T = system: Hs-578T
MDA-N = system: MDA-N
PC-3 = system: PC-3
MCF7 = system: MCF7

SMILES	GI50 (786-0)	GI50 (HCC 2998)	GI50 (HCT-15)	GI50 (HOP-92)	GI50 (K562)	GI50 (M19-MEL)	GI50 (NCI-H226)	GI50 (NCI-H460)	GI50 (OVCAR-5)	GI50 (RPMI-8226)	GI50 (SF-268)	GI50 (SF-539)	GI50 (SK-OV-3)	GI50 (SNB-19)	GI50 (SNB-75)	GI50 (UACC-62)	GI50 (Hs-578T)	GI50 (MDA-N)	GI50 (PC-3)	GI50 (MCF7)
CC(=O)CC(=O)NC=O	> 100 µM (inactive)	> 100 µM (inactive)	> 100 µM	> 100 µM (inactive)	> 100 µM (inactive)	> 100 µM (inactive)	> 100 µM (inactive)	> 100 µM (inactive)	> 100 µM (inactive)	> 100 µM (inactive)	> 100 µM (inactive)	> 100 µM (inactive)	> 100 µM (inactive)	> 100 µM (inactive)	> 100 µM (inactive)	> 100 µM (inactive)				
CC[C@@H]1OC2(C)CC(S(=O)(=O)c3ccccc3)CC1O2 (stereo not given in full)	> 100 µM (inactive)	> 100 µM (inactive)	> 100 µM	> 100 µM (inactive)	> 100 µM (inactive)	> 100 µM (inactive)	> 100 µM (inactive)	> 100 µM (inactive)	> 100 µM (inactive)	> 100 µM (inactive)	> 100 µM (inactive)	> 100 µM (inactive)	> 100 µM (inactive)	> 100 µM (inactive)	> 100 µM (inactive)	> 100 µM (inactive)				
CC1SC2=NC3=C(c4ccccc4C3=O)C(c3ccc(F)cc3)N2C1=O (stereo not given)	> 100 µM (inactive)	> 100 µM (inactive)	> 100 µM	50.7 µM (inactive)	> 100 µM (inactive)	> 100 µM (inactive)	38.5 µM (inactive)	> 100 µM (inactive)	> 100 µM (inactive)	65.3 µM (inactive)	> 100 µM (inactive)	> 100 µM (inactive)	> 100 µM (inactive)	> 100 µM (inactive)	35.6 µM (inactive)	64.1 µM (inactive)				
Nc1ccccc1[S+]([O-])c1ccccc1 (stereo not given)	> 100 µM (inactive)	> 100 µM (inactive)	> 100 µM	39.2 µM (inactive)	> 100 µM (inactive)	> 100 µM (inactive)	> 100 µM (inactive)	> 100 µM (inactive)	> 100 µM (inactive)	> 100 µM (inactive)	> 100 µM (inactive)	> 100 µM (inactive)	> 100 µM (inactive)	> 100 µM (inactive)	> 100 µM (inactive)	> 100 µM (inactive)				
C=C(CN(C)C)C(=O)c1ccccc1OC	13.9 µM (inactive)	34.6 µM (inactive)	15.9 µM	14.7 µM (inactive)	4.35 µM (inactive)	16.3 µM (inactive)	37.2 µM (inactive)	38.1 µM (inactive)	19.1 µM (inactive)	5.28 µM (inactive)	25.2 µM (inactive)	15.6 µM (inactive)	47.5 µM (inactive)	44.4 µM (inactive)	27.2 µM (inactive)	21 µM (inactive)	20.7 µM (inactive)	18.2 µM (inactive)	17.5 µM (inactive)	
O=C1C=CN(C2OC(CO)C(O)C2O)C(=O)C1 (stereo not given)	13.3 µM (inactive)		17.9 µM		1.58 µM (inactive)	35.6 µM (inactive)	423 µM (inactive)	0.942 µM (active)	1350 µM (inactive)	5.47 µM (inactive)		91.6 µM (inactive)	1320 µM (inactive)		838 µM (inactive)	50.4 µM (inactive)	126 µM (inactive)	62.5 µM (inactive)	155 µM (inactive)	7.76 µM (inactive)
COC(=O)[C@@]12OC[C@]34C([C@@H](O)C1O)[C@@]1(C)CC(=O)C(O)=C(C)C1C[C@H]3OC(=O)[C@H](OC(=O)/C=C(/c1ccccc1)C(F)(F)F)[C@H]42 (stereo not given in full)	7.93 µM (inactive)	1.75 µM (inactive)	7.93 µM	2.15 µM (inactive)	4.93 µM (inactive)	1.19 µM (inactive)	2.02 µM (inactive)	1.03 µM (active)	8.75 µM (inactive)	1.56 µM (inactive)	8.81 µM (inactive)	1 µM (active)	7.29 µM (inactive)	3.62 µM (inactive)	7.8 µM (inactive)	2.05 µM (inactive)				
C=C[C@]1(C)CC(O)C2C(=C)C(=O)OC2[C@H]1C(=C)C=O (stereo not given in full)	1.91 µM (inactive)	14.1 µM (inactive)	2.06 µM	2.61 µM (inactive)	2.52 µM (inactive)	2.52 µM (inactive)	6.59 µM (inactive)	14.5 µM (inactive)	10.8 µM (inactive)	0.859 µM (active)	3.95 µM (inactive)	3.29 µM (inactive)	25.8 µM (inactive)	18.2 µM (inactive)	18.6 µM (inactive)	1.79 µM (inactive)	14.4 µM (inactive)	3.92 µM (inactive)	2.87 µM (inactive)	1.09 µM (active)
CC(=O)OC(C)(C)/C=C/C(=O)[C@](C)(O)[C@H]1[C@H](O)C[C@@]2(C)[C@@H]3CC=C4[C@@H](C=C(O)C(=O)C4(C)C)[C@]3(C)C(=O)C[C@]12C [CUCURBITACIN E]	0.0339 µM (active)	0.0501 µM (active)	0.0278 µM	0.0302 µM (active)	0.0681 µM (active)	0.0807 µM (active)	0.0327 µM (active)	0.0222 µM (active)	0.186 µM (active)	0.041 µM (active)	0.0275 µM (active)	0.023 µM (active)	0.0436 µM (active)	0.057 µM (active)	0.0187 µM (active)	0.065 µM (active)	0.0473 µM (active)	0.0518 µM (active)	0.259 µM (active)	0.054 µM (active)
